Among the data in ChEMBL document CHEMBL1154389, “Discovery of pyrimidine benzimidazoles as Src-family selective Lck inhibitors. Part II” (Bioorg Med Chem Lett, 2009) are IC50 values, retold here.

Sequence of Tyrosine-protein kinase Lck (P06239 whole entry): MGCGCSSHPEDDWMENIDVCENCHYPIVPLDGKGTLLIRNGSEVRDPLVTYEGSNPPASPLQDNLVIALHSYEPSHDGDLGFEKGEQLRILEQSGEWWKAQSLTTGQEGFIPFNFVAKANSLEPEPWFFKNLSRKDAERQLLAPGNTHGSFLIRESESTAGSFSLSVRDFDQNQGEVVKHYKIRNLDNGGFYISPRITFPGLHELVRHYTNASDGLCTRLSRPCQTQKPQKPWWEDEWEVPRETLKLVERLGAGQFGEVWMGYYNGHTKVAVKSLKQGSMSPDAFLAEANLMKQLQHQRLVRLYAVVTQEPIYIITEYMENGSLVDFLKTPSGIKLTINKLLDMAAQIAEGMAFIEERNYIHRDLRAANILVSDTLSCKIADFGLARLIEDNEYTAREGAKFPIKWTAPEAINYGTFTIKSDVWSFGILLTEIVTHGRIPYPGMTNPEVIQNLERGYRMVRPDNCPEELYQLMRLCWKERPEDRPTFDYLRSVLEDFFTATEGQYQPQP

The target of the first assay is Proto-oncogene tyrosine-protein kinase Src (Homo sapiens, UniProt P12931). The experiment in a line: Inhibition of SRC.
Sequence of Proto-oncogene tyrosine-protein kinase Src (P12931 2-536 limits assumed): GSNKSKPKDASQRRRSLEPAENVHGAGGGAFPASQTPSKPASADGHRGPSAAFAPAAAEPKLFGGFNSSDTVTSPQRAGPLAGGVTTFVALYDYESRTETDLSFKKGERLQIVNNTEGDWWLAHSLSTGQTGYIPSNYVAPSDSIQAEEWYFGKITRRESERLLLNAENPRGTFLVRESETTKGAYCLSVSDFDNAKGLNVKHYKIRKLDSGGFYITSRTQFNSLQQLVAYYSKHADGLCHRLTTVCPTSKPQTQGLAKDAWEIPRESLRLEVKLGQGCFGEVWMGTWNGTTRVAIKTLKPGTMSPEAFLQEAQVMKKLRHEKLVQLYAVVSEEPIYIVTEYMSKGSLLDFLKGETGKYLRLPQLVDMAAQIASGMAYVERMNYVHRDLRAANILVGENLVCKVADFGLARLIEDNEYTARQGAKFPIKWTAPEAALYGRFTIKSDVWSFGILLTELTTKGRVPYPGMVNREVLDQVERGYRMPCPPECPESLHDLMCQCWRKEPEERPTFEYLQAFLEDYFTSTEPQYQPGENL
For orientation: IC50 means the midpoint of a concentration-inhibition curve. A high value points to weaker potency in that assay. The compound `Cc1ccc(NC(=O)c2cc(CN3CCN(C)CC3)n(C(C)(C)C)n2)cc1Nc1nc2ccccc2n1-c1cc(N)ncn1` returned an IC50 of 0.177 µM.

As to `Cc1ccc(C(=O)Nc2cccc(C(F)(F)F)c2)cc1Nc1nc2ccccc2n1-c1cc(NCCCCN(C)C)ncn1`, half-maximal inhibition (IC50) required 0.485 µM.

`CCN(CC)CCCCNc1cc(-n2c(Nc3cc(C(=O)Nc4cccc(C(F)(F)F)c4)ccc3C)nc3ccccc32)ncn1`: the IC50 came to 0.274 µM.

On to `Cc1ccc(C(=O)Nc2cccc(C(F)(F)F)c2)cc1Nc1nc2ccccc2n1-c1cc(NCCN2CCN(C)CC2)ncn1`, for which the IC50 was determined as 0.458 µM.

`Cc1ccc(C(=O)Nc2cccc(C(F)(F)F)c2)cc1Nc1nc2ccccc2n1-c1cc(NCCCN2CCN(C)CC2)ncn1` showed an IC50 of 0.494 µM.

`Cc1ccc(NC(=O)c2cc(OC3CCN(C)CC3)cc(C(F)(F)F)c2)cc1Nc1nc2ccccc2n1-c1cc(N)ncn1` displayed an IC50 of 0.233 µM.

`CCN1CCN(Cc2ccc(C(=O)Nc3ccc(C)c(Nc4nc5ccccc5n4-c4cc(N)ncn4)c3)cc2Cl)CC1` showed an IC50 of 0.032 µM.

`Cc1ccc(NC(=O)c2cc(N3CCN(C)CC3)cc(C(F)(F)F)c2)cc1Nc1nc2ccccc2n1-c1cc(N)ncn1`: the midpoint of inhibition, the IC50, lay at 0.13 µM.

`CCN1CCN(c2cc(C(=O)Nc3ccc(C)c(Nc4nc5ccccc5n4-c4cc(N)ncn4)c3)cc(C(F)(F)F)c2)CC1` showed an IC50 of 0.071 µM.

In the case of `CCN(CC)CCNc1cc(-n2c(Nc3cc(NC(=O)c4cccc(C(F)(F)F)c4)ccc3C)nc3ccccc32)ncn1`, the IC50 was more than 2.5 µM.

Compound `Cc1ccc(NC(=O)c2cccc(C(F)(F)F)c2)cc1Nc1nc2ccccc2n1-c1cc(NCCCCN(C)C)ncn1` displayed an IC50 of 0.139 µM.

`Cc1ccc(NC(=O)c2cccc(C(F)(F)F)c2)cc1Nc1nc2ccccc2n1-c1cc(NCCCC2COCCN2)ncn1` (stereo not drawn) returned an IC50 of 0.165 µM.

`Cc1ccc(NC(=O)c2cccc(C(F)(F)F)c2)cc1Nc1nc2ccccc2n1-c1cc(NCCC2CCCN2)ncn1` (stereo not drawn) displayed an IC50 of more than 2.5 µM.

With `Cc1ccc(NC(=O)c2cccc(C(F)(F)F)c2)cc1Nc1nc2ccccc2n1-c1cc(NC2CCN(C)CC2)ncn1`, the IC50 was more than 2.5 µM.

`Cc1ccc(NC(=O)c2cccc(C(F)(F)F)c2)cc1Nc1nc2ccccc2n1-c1cc(NCCc2ccccn2)ncn1` had an IC50 of 2.37 µM.

`Cc1ccc(NC(=O)c2cccc(C(F)(F)F)c2)cc1Nc1nc2ccccc2n1-c1cc(N2CCOCC2)ncn1` gave an IC50 of more than 2.5 µM.

Compound `Cc1ccc(NC(=O)c2cccc(C(F)(F)F)c2)cc1Nc1nc2ccccc2n1-c1cc(NCCN2CCN(C)CC2)ncn1` came in with an IC50 of 0.305 µM.

`Cc1ccc(NC(=O)c2cccc(C(F)(F)F)c2)cc1Nc1nc2ccccc2n1-c1cc(NCCCN2CCN(C)CC2)ncn1` returned an IC50 of 0.128 µM.

`Cc1ccc(NC(=O)c2cccc(Cl)c2)cc1Nc1nc2ccccc2n1-c1cc(N)ncn1` yielded an IC50 of 1.65 µM.

`Cc1ccc(NC(=O)c2cccc(C(F)(F)F)c2)cc1Nc1nc2ccccc2n1-c1cc(N)ncn1` yielded an IC50 of 0.45 µM.

Turning to `Cc1ccc(NC(=O)c2cc(Cl)cc(Cl)c2)cc1Nc1nc2ccccc2n1-c1cc(N)ncn1`, the IC50 was 0.53 µM.

Consider `Cc1ccc(C(=O)Nc2cccc(C(F)(F)F)c2)cc1Nc1nc2ccccc2n1-c1ncnc(N)c1C`, for which the IC50 was more than 2.5 µM.

In turn, `Cc1cccc(C(=O)Nc2ccc(C)c(Nc3nc4ccccc4n3-c3cc(N)ncn3)c2)c1` returned an IC50 of 1.54 µM.

On to `Cc1ccc(NC(=O)c2cc(C3CC3)n[nH]2)cc1Nc1nc2ccccc2n1-c1cc(N)ncn1`, for which the IC50 is 7.36 µM.

Compound `COc1cc(-n2c(Nc3cc(NC(=O)c4cccc(C(F)(F)F)c4)ccc3C)nc3ccccc32)ncn1` returned an IC50 of more than 2.5 µM.

In turn, `Cc1ccc(NC(=O)c2cccc(C(F)(F)F)c2)cc1Nc1nc2ccccc2n1-c1cc(NCCO)ncn1` showed an IC50 of 1.92 µM.

A further assay concerns the target Tyrosine-protein kinase Lck (Homo sapiens, UniProt P06239). The experiment in a line: Inhibition of LCK.
In the case of `Cc1ccc(NC(=O)c2cc(CN3CCN(C)CC3)n(C(C)(C)C)n2)cc1Nc1nc2ccccc2n1-c1cc(N)ncn1`, 0.008 µM corresponded to half-maximal inhibition (IC50).

As for `Cc1ccc(C(=O)Nc2cccc(C(F)(F)F)c2)cc1Nc1nc2ccccc2n1-c1cc(NCCCCN(C)C)ncn1`, the midpoint of inhibition, the IC50, lay at 0.015 µM.

`CCN(CC)CCCCNc1cc(-n2c(Nc3cc(C(=O)Nc4cccc(C(F)(F)F)c4)ccc3C)nc3ccccc32)ncn1` displayed an IC50 of 0.018 µM.

For `Cc1ccc(C(=O)Nc2cccc(C(F)(F)F)c2)cc1Nc1nc2ccccc2n1-c1cc(NCCN2CCN(C)CC2)ncn1`, inhibition was half-maximal at 0.011 µM (IC50).

Take `Cc1ccc(C(=O)Nc2cccc(C(F)(F)F)c2)cc1Nc1nc2ccccc2n1-c1cc(NCCCN2CCN(C)CC2)ncn1`: the midpoint of inhibition, the IC50, lay at 0.018 µM.

In turn, `Cc1ccc(NC(=O)c2cc(OC3CCN(C)CC3)cc(C(F)(F)F)c2)cc1Nc1nc2ccccc2n1-c1cc(N)ncn1` yielded an IC50 of 0.024 µM.

`CCN1CCN(Cc2ccc(C(=O)Nc3ccc(C)c(Nc4nc5ccccc5n4-c4cc(N)ncn4)c3)cc2Cl)CC1` gave an IC50 of 0.004 µM.

The compound `Cc1ccc(NC(=O)c2cc(N3CCN(C)CC3)cc(C(F)(F)F)c2)cc1Nc1nc2ccccc2n1-c1cc(N)ncn1` displayed an IC50 of 0.011 µM.

For the compound `CCN1CCN(c2cc(C(=O)Nc3ccc(C)c(Nc4nc5ccccc5n4-c4cc(N)ncn4)c3)cc(C(F)(F)F)c2)CC1`, the midpoint of inhibition, the IC50, lay at 0.011 µM.

With `CCN(CC)CCNc1cc(-n2c(Nc3cc(NC(=O)c4cccc(C(F)(F)F)c4)ccc3C)nc3ccccc32)ncn1`, the midpoint of inhibition, the IC50, lay at 0.111 µM.

In the case of `Cc1ccc(NC(=O)c2cccc(C(F)(F)F)c2)cc1Nc1nc2ccccc2n1-c1cc(NCCCCN(C)C)ncn1`, the IC50 turned out to be 0.005 µM.

`Cc1ccc(NC(=O)c2cccc(C(F)(F)F)c2)cc1Nc1nc2ccccc2n1-c1cc(NCCCC2COCCN2)ncn1` (stereo not drawn) returned an IC50 of 0.026 µM.

On to `Cc1ccc(NC(=O)c2cccc(C(F)(F)F)c2)cc1Nc1nc2ccccc2n1-c1cc(NCCC2CCCN2)ncn1` (stereo not drawn), for which inhibition was half-maximal at 0.038 µM (IC50).

Consider `Cc1ccc(NC(=O)c2cccc(C(F)(F)F)c2)cc1Nc1nc2ccccc2n1-c1cc(NC2CCN(C)CC2)ncn1`, for which 0.168 µM corresponded to half-maximal inhibition (IC50).

`Cc1ccc(NC(=O)c2cccc(C(F)(F)F)c2)cc1Nc1nc2ccccc2n1-c1cc(NCCc2ccccn2)ncn1` gave an IC50 of 0.204 µM.

For `Cc1ccc(NC(=O)c2cccc(C(F)(F)F)c2)cc1Nc1nc2ccccc2n1-c1cc(N2CCOCC2)ncn1`, the IC50 is more than 2.5 µM.

For `Cc1ccc(NC(=O)c2cccc(C(F)(F)F)c2)cc1Nc1nc2ccccc2n1-c1cc(NCCN2CCN(C)CC2)ncn1`, inhibition was half-maximal at 0.029 µM (IC50).

Compound `Cc1ccc(NC(=O)c2cccc(C(F)(F)F)c2)cc1Nc1nc2ccccc2n1-c1cc(NCCCN2CCN(C)CC2)ncn1` yielded an IC50 of 0.006 µM.

For `Cc1ccc(NC(=O)c2cccc(Cl)c2)cc1Nc1nc2ccccc2n1-c1cc(N)ncn1`, the IC50 was determined as 0.132 µM.

`Cc1ccc(NC(=O)c2cccc(C(F)(F)F)c2)cc1Nc1nc2ccccc2n1-c1cc(N)ncn1`: the midpoint of inhibition, the IC50, lay at 0.011 µM.

`Cc1ccc(NC(=O)c2cc(Cl)cc(Cl)c2)cc1Nc1nc2ccccc2n1-c1cc(N)ncn1` came in with an IC50 of 0.058 µM.

As for `Cc1ccc(C(=O)Nc2cccc(C(F)(F)F)c2)cc1Nc1nc2ccccc2n1-c1ncnc(N)c1C`, 2.4 µM corresponded to half-maximal inhibition (IC50).

Compound `Cc1cccc(C(=O)Nc2ccc(C)c(Nc3nc4ccccc4n3-c3cc(N)ncn3)c2)c1` yielded an IC50 of 0.07 µM.

Turning to `Cc1ccc(NC(=O)c2cc(C3CC3)n[nH]2)cc1Nc1nc2ccccc2n1-c1cc(N)ncn1`, half-maximal inhibition (IC50) was put at 0.12 µM.

In the case of `COc1cc(-n2c(Nc3cc(NC(=O)c4cccc(C(F)(F)F)c4)ccc3C)nc3ccccc32)ncn1`, the IC50 worked out at 2.03 µM.

On to `Cc1ccc(NC(=O)c2cccc(C(F)(F)F)c2)cc1Nc1nc2ccccc2n1-c1cc(NCCO)ncn1`, for which the IC50 worked out at 0.027 µM.

The target of the next assay is Tyrosine-protein kinase HCK (Homo sapiens, UniProt P08631). The experiment in a line: Inhibition of HCK.
Sequence of Tyrosine-protein kinase HCK (P08631 whole entry): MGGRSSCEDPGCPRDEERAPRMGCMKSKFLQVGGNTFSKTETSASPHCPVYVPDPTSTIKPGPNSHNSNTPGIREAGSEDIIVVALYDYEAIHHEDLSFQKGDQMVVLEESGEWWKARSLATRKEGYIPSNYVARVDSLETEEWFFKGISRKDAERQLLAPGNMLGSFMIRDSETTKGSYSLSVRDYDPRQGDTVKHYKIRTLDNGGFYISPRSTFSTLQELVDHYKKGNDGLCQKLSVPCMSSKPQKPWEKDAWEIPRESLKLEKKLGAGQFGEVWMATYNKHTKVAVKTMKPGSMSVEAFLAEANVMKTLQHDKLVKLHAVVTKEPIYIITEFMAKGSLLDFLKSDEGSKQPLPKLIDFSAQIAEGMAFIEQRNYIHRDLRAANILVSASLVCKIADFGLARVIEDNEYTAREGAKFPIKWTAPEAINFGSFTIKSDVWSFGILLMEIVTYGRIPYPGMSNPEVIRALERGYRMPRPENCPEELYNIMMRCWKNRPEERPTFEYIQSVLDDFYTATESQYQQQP
In turn, `Cc1ccc(NC(=O)c2cc(CN3CCN(C)CC3)n(C(C)(C)C)n2)cc1Nc1nc2ccccc2n1-c1cc(N)ncn1` displayed an IC50 of 0.011 µM.

For the compound `Cc1ccc(C(=O)Nc2cccc(C(F)(F)F)c2)cc1Nc1nc2ccccc2n1-c1cc(NCCCCN(C)C)ncn1`, the IC50 turned out to be 0.056 µM.

In turn, `CCN(CC)CCCCNc1cc(-n2c(Nc3cc(C(=O)Nc4cccc(C(F)(F)F)c4)ccc3C)nc3ccccc32)ncn1` gave an IC50 of 0.475 µM.

Compound `Cc1ccc(C(=O)Nc2cccc(C(F)(F)F)c2)cc1Nc1nc2ccccc2n1-c1cc(NCCN2CCN(C)CC2)ncn1` registered an IC50 of 0.13 µM.

On to `Cc1ccc(C(=O)Nc2cccc(C(F)(F)F)c2)cc1Nc1nc2ccccc2n1-c1cc(NCCCN2CCN(C)CC2)ncn1`, for which the IC50 was 0.26 µM.

In turn, `Cc1ccc(NC(=O)c2cc(OC3CCN(C)CC3)cc(C(F)(F)F)c2)cc1Nc1nc2ccccc2n1-c1cc(N)ncn1` came in with an IC50 of 0.027 µM.

For `CCN1CCN(Cc2ccc(C(=O)Nc3ccc(C)c(Nc4nc5ccccc5n4-c4cc(N)ncn4)c3)cc2Cl)CC1`, the midpoint of inhibition, the IC50, lay at 0.009 µM.

Regarding `Cc1ccc(NC(=O)c2cc(N3CCN(C)CC3)cc(C(F)(F)F)c2)cc1Nc1nc2ccccc2n1-c1cc(N)ncn1`, the IC50 was determined as 0.02 µM.

In turn, `CCN1CCN(c2cc(C(=O)Nc3ccc(C)c(Nc4nc5ccccc5n4-c4cc(N)ncn4)c3)cc(C(F)(F)F)c2)CC1` came in with an IC50 of 0.016 µM.

`CCN(CC)CCNc1cc(-n2c(Nc3cc(NC(=O)c4cccc(C(F)(F)F)c4)ccc3C)nc3ccccc32)ncn1` returned an IC50 of 0.378 µM.

In turn, `Cc1ccc(NC(=O)c2cccc(C(F)(F)F)c2)cc1Nc1nc2ccccc2n1-c1cc(NCCCCN(C)C)ncn1` had an IC50 of 0.065 µM.

As to `Cc1ccc(NC(=O)c2cccc(C(F)(F)F)c2)cc1Nc1nc2ccccc2n1-c1cc(NCCCC2COCCN2)ncn1` (stereo not drawn), 0.049 µM corresponded to half-maximal inhibition (IC50).

Consider `Cc1ccc(NC(=O)c2cccc(C(F)(F)F)c2)cc1Nc1nc2ccccc2n1-c1cc(NCCC2CCCN2)ncn1` (stereo not drawn), for which the IC50 stood at 0.805 µM.

Compound `Cc1ccc(NC(=O)c2cccc(C(F)(F)F)c2)cc1Nc1nc2ccccc2n1-c1cc(NC2CCN(C)CC2)ncn1` had an IC50 of more than 2.5 µM.

Take `Cc1ccc(NC(=O)c2cccc(C(F)(F)F)c2)cc1Nc1nc2ccccc2n1-c1cc(NCCc2ccccn2)ncn1`: inhibition was half-maximal at 0.917 µM (IC50).

Compound `Cc1ccc(NC(=O)c2cccc(C(F)(F)F)c2)cc1Nc1nc2ccccc2n1-c1cc(N2CCOCC2)ncn1` registered an IC50 of more than 2.5 µM.

As to `Cc1ccc(NC(=O)c2cccc(C(F)(F)F)c2)cc1Nc1nc2ccccc2n1-c1cc(NCCN2CCN(C)CC2)ncn1`, the IC50 was determined as 0.069 µM.

Compound `Cc1ccc(NC(=O)c2cccc(C(F)(F)F)c2)cc1Nc1nc2ccccc2n1-c1cc(NCCCN2CCN(C)CC2)ncn1` registered an IC50 of 0.031 µM.

The compound `Cc1ccc(NC(=O)c2cccc(Cl)c2)cc1Nc1nc2ccccc2n1-c1cc(N)ncn1` gave an IC50 of 0.475 µM.

With `Cc1ccc(NC(=O)c2cccc(C(F)(F)F)c2)cc1Nc1nc2ccccc2n1-c1cc(N)ncn1`, the IC50 is 0.043 µM.

`Cc1ccc(NC(=O)c2cc(Cl)cc(Cl)c2)cc1Nc1nc2ccccc2n1-c1cc(N)ncn1` had an IC50 of 0.121 µM.

`Cc1ccc(C(=O)Nc2cccc(C(F)(F)F)c2)cc1Nc1nc2ccccc2n1-c1ncnc(N)c1C` registered an IC50 of more than 2.5 µM.

`Cc1cccc(C(=O)Nc2ccc(C)c(Nc3nc4ccccc4n3-c3cc(N)ncn3)c2)c1` registered an IC50 of 0.245 µM.

`Cc1ccc(NC(=O)c2cc(C3CC3)n[nH]2)cc1Nc1nc2ccccc2n1-c1cc(N)ncn1` had an IC50 of 0.446 µM.

Consider `COc1cc(-n2c(Nc3cc(NC(=O)c4cccc(C(F)(F)F)c4)ccc3C)nc3ccccc32)ncn1`, for which the half-maximal inhibitory concentration (IC50) is more than 2.5 µM.

`Cc1ccc(NC(=O)c2cccc(C(F)(F)F)c2)cc1Nc1nc2ccccc2n1-c1cc(NCCO)ncn1`: the IC50 was determined as 0.192 µM.
